Reference: patent US9597407B2, “Targeted antimicrobial moieties” (C3 Jian, Inc., priority 2009, dated 2017)
“Also recorded” adds a separate entry of the source. Ends that are not written are not given here.

Tests used:
[1] = system: microorganisms; assay: Morphology, biofilm and growth disruption by peptides (Table 5); assay type: cell-based; parameters: key: A: Peptide aggregates; B: Less hyphal formation; Clumps; Diffuse clumps and small polyps; F: Diffuse growth; H: Thin; I: Growth inhibition; Microcolony formation; Rippled; Small polyps; Thick; W: Halo formation on top, microlonies on bottom
Text: In certain embodiments peptides that induce alterations in phenotype or other biological activities can also be used as antimicrobial effector moieties.

[2] = system: microorganisms; assay: Peptide activities: binding, antimicrobial, growth or phenotype altering (Table 8)
Text: In certain embodiments, peptides described herein can have multiple activities. Thus for example, a peptide can have both binding/targeting activity and antimicrobial activity. Such peptides can be used, e.g., in a chimeric construct, for any or all of these properties. Thus, for example, a peptide designated “B” in Table 8 can be used as a targeting peptide. If it is also designated G or M it can also be used for antimicrobial activity.

[3] = system: bacteria; assay: Binding of targeting peptides to microorganisms (Table 3); details: preferably 1x PBS; for Target(s) (microorganisms bound by the targeting peptide) / Target(s) (microorganism bound by the targeting peptide): peptide binding in aqueous buffers that varied depending on peptide solubility; for Target(s): microorganism bound by the targeting peptide, binding in aqueous buffers chosen by peptide solubility

PF-451 (MVNYIIGSYMLYREQNNNEALRKFDITLAM; Peptide with targeting and/or antimicrobial activity)
Organism, effect (morphology, biofilm and growth disruption) ([1]; E. coli): E. coli (R) | Organism, effect (morphology, biofilm and growth disruption) ([1]; E. faecalis): E. faecalis (C) | Organism, effect (morphology, biofilm and growth disruption) ([1]; MRSA): MRSA (C) | Organism, effect (morphology, biofilm and growth disruption) ([1]; S. epidermidis): S. epidermidis (C) | Organism, effect (morphology, biofilm and growth disruption) ([1]; S. pneumoniae): S. pneumoniae (C) | Activities [2]: G B

PF-578 (QKANLRIGFTYTSDSNVCNLTFALLGSK; Peptide with targeting and/or antimicrobial activity)
Organism, effect (morphology, biofilm and growth disruption) ([1]; E. coli): E. coli (C) | Organism, effect (morphology, biofilm and growth disruption) ([1]; M. luteus): M. luteus (C) | Organism, effect (morphology, biofilm and growth disruption) ([1]; MRSA): MRSA (C) | Organism, effect (morphology, biofilm and growth disruption) ([1]; P. mirabilis): P. mirabilis (C) | Organism, effect (morphology, biofilm and growth disruption) ([1]; S. epidermidis): S. epidermidis (D) | Organism, effect (morphology, biofilm and growth disruption) ([1]; S. mutans): S. mutans (D) | Organism, effect (morphology, biofilm and growth disruption) ([1]; S. pneumoniae): S. pneumoniae (D) | Activities [2]: G B

PF-469 (YKVNYNNIDNHFNTLRH; Peptide with targeting and/or antimicrobial activity)
Organism, effect (morphology, biofilm and growth disruption) ([1]; C. jejuni): C. jejuni (D) | Organism, effect (morphology, biofilm and growth disruption) ([1]; E. coli): E. coli (C) | Organism, effect (morphology, biofilm and growth disruption) ([1]; E. faecalis): E. faecalis (D) | Organism, effect (morphology, biofilm and growth disruption) ([1]; MRSA): MRSA (D) | Organism, effect (morphology, biofilm and growth disruption) ([1]; S. epidermidis): S. epidermidis (D) | Organism, effect (morphology, biofilm and growth disruption) ([1]; S. pneumoniae): S. pneumoniae (D) | Activities [2]: G B

PF-401 (YWLSRVTTGHSFAFEKPVPLSLTIK; Peptide with targeting and/or antimicrobial activity)
Target(s) (microorganisms bound by the targeting peptide) [3]: S. epidermidis and E. coli and P. aeruginosa and MRSA and E. faecalis and C. jejuni | Organism, effect ([1]; E. coli): E. coli (R) | Organism, effect ([1]; E. faecalis): E. faecalis (C) | Organism, effect ([1]; MRSA): MRSA (C) | Organism, effect ([1]; S. epidermidis): S. epidermidis (C)

PF-074 (RDIHPIYFMTKD; Peptide with targeting and/or antimicrobial activity)
Target(s) [3]: S. epidermidis and M. luteus and MRSA | Organism, effect ([1]; MRSA): MRSA (M) | Organism, effect ([1]; S. epidermidis): S. epidermidis (D)

PF-656 (chain 1 RGMFVPFHDVDCVQ; chain 2 RGMFVPFHDVDCVQ; Peptide with targeting and/or antimicrobial activity)
Target(s) (microorganism bound by the targeting peptide) [3]: Mycobacteria spp | Organism, effect (morphology, biofilm and growth disruption) ([1]; MRSA): MRSA (R)

MIRIRSPTKKKLNRNSISDWKSNTSGRFFY [PF-283]
Target(s) [3]: B. subtilis; also recorded: B. fragilis; also recorded: C. difficile | Organism, effect ([1]; B. subtilis): B. subtilis (H) | Organism, effect ([1]; S. epidermidis): S. epidermidis (H)

PF-128 (GIKVVAARFEEIQFSENFDSIILA; Peptide with targeting and/or antimicrobial activity)
Target(s) [3]: M. luteus; also recorded: P. aeruginosa; also recorded: E. faecalis | Organism, effect ([1]; P. aeruginosa): P. aeruginosa (C) | Organism, effect ([1]; S. epidermidis): S. epidermidis (D)

PF-704 (chain 1 APAARAAL; chain 2 APAARAAL; Peptide with targeting and/or antimicrobial activity)
Target(s) (microorganism bound by the targeting peptide) [3]: Mycobacteria spp | Organism, effect (morphology, biofilm and growth disruption) ([1]; S. pneumoniae): S. pneumoniae (C)

RESKLIAMADMIRRRI-NH2 [PF-545]
Target(s) (microorganisms bound by the targeting peptide) [3]: S. epidermidis; also recorded: E. coli; also recorded: P. aeruginosa; also recorded: S. pneumoniae; also recorded: E. faecalis; also recorded: C. jeikeium | Organism, effect (morphology, biofilm and growth disruption) ([1]; B. subtilis): B. subtilis (I) | Organism, effect (morphology, biofilm and growth disruption) ([1]; C. albicans): C. albicans (B) | Organism, effect (morphology, biofilm and growth disruption) ([1]; C. jeikeium): C. jeikeium (H) | Organism, effect (morphology, biofilm and growth disruption) ([1]; E. faecalis): E. faecalis (H)

PF-C062 (PLARATEVVATLFIICSLLLYLTR; Peptide with targeting and/or antimicrobial activity)
Target(s) (microorganism bound by the targeting peptide) [3]: A. naeslundii; also recorded: F. nucleatum; also recorded: P. gingivalis; also recorded: S. mutans; also recorded: T. denticola | Organism, effect (morphology, biofilm and growth disruption) ([1]; F. nucleatum): F. nucleatum (T) | Organism, effect (morphology, biofilm and growth disruption) ([1]; S. mutans): S. mutans (I)

PF-235 (GIPFSKPHKRQVNYMKSDVLAYIEQNKMAHTA; Peptide with targeting and/or antimicrobial activity)
Target(s) [3]: S. epidermidis; also recorded: M. luteus | Organism, effect ([1]; M. luteus): M. luteus (T)

PF-273 (LVGALLIFVALIYMVLKGNADKN; Peptide with targeting and/or antimicrobial activity)
Target(s) [3]: S. epidermidis; also recorded: M. luteus; also recorded: P. aeruginosa; also recorded: A. baumannii | Organism, effect ([1]; S. epidermidis): S. epidermidis (C)

PF-662 (chain 1 GKQSRAHGPVASRREFRRKSG; chain 2 GKQSRAHGPVASRREFRRKSG; Peptide with targeting and/or antimicrobial activity)
Target(s) (microorganism bound by the targeting peptide) [3]: Mycobacteria spp | Organism, effect (morphology, biofilm and growth disruption) ([1]; S. pneumoniae): S. pneumoniae (A)

PF-697 (chain 1 RADARAK; chain 2 RADARAK; Peptide with targeting and/or antimicrobial activity)
Target(s) (microorganism bound by the targeting peptide) [3]: Mycobacteria spp | Organism, effect (morphology, biofilm and growth disruption) ([1]; C. albicans): C. albicans (H) | Organism, effect (morphology, biofilm and growth disruption) ([1]; S. pneumoniae): S. pneumoniae (H)

PF-585 (DYNHLLNVVQDWVNTN; Peptide with targeting and/or antimicrobial activity)
Target(s) (microorganisms bound by the targeting peptide) [3]: S. epidermidis and E. coli and C. albicans and MRSA and S. pneumoniae and C. jeikeium | Organism, effect (morphology, biofilm and growth disruption) ([1]; C. jejuni): C. jejuni (R) | Organism, effect (morphology, biofilm and growth disruption) ([1]; E. faecalis): E. faecalis (A) | Organism, effect (morphology, biofilm and growth disruption) ([1]; MRSA): MRSA (S) | Organism, effect (morphology, biofilm and growth disruption) ([1]; S. epidermidis): S. epidermidis (S) | Organism, effect (morphology, biofilm and growth disruption) ([1]; S. pneumoniae): S. pneumoniae (R)

PF-682 (chain 1 RRGKSEQGLSRR; chain 2 RRGKSEQGLSRR; Peptide with targeting and/or antimicrobial activity)
Target(s) (microorganism bound by the targeting peptide) [3]: Mycobacteria spp | Organism, effect (morphology, biofilm and growth disruption) ([1]; S. pneumoniae): S. pneumoniae (A)

PF-599 (LFEIFKPKH; Peptide with targeting and/or antimicrobial activity)
Target(s) (microorganism bound by the targeting peptide) [3]: S. epidermidis and P. mirabilis and E. coli and C. albicans and MRSA and S. pneumoniae and C. jeikeium | Organism, effect (morphology, biofilm and growth disruption) ([1]; C. jejuni): C. jejuni (R) | Organism, effect (morphology, biofilm and growth disruption) ([1]; E. faecalis): E. faecalis (A) | Organism, effect (morphology, biofilm and growth disruption) ([1]; MRSA): MRSA (C) | Organism, effect (morphology, biofilm and growth disruption) ([1]; S. epidermidis): S. epidermidis (M) | Organism, effect (morphology, biofilm and growth disruption) ([1]; S. pneumoniae): S. pneumoniae (R)

PF-659 (chain 1 TVIST; chain 2 TVIST; Peptide with targeting and/or antimicrobial activity)
Target(s) (microorganism bound by the targeting peptide) [3]: Mycobacteria spp | Organism, effect (morphology, biofilm and growth disruption) ([1]; B. subtilis): B. subtilis (H) | Organism, effect (morphology, biofilm and growth disruption) ([1]; MRSA): MRSA (R) | Organism, effect (morphology, biofilm and growth disruption) ([1]; S. epidermidis): S. epidermidis (M) | Organism, effect (morphology, biofilm and growth disruption) ([1]; S. pneumoniae): S. pneumoniae (C)

PF-133 (GDPTAGQKPVECP; Peptide with targeting and/or antimicrobial activity)
Target(s) [3]: S. epidermidis; also recorded: C. jeikeium; also recorded: C. jejuni; also recorded: M. smegmatis | Organism, effect ([1]; C. jeikeium): C. jeikeium (R)

PF-204 (ALQKQDMNLPSVKNQLVFLKSTG; Peptide with targeting and/or antimicrobial activity)
Target(s) [3]: S. epidermidis; also recorded: P. mirabilis; also recorded: E. coli; also recorded: P. aeruginosa; also recorded: C. albicans; also recorded: C. jejuni | Organism, effect ([1]; C. jeikeium): C. jeikeium (D) | Organism, effect ([1]; M. luteus): M. luteus (C) | Organism, effect ([1]; P. aeruginosa): P. aeruginosa (H) | Organism, effect ([1]; S. epidermidis): S. epidermidis (C)

PF-640 (chain 1 MGDINRNF; chain 2 MGDINRNF; Peptide with targeting and/or antimicrobial activity)
Target(s) (microorganism bound by the targeting peptide) [3]: C. albicans | Organism, effect (morphology, biofilm and growth disruption) ([1]; C. albicans): C. albicans (B) | Organism, effect (morphology, biofilm and growth disruption) ([1]; E. faecalis): E. faecalis (H) | Organism, effect (morphology, biofilm and growth disruption) ([1]; S. pneumoniae): S. pneumoniae (I)

PF-276 (LDLALSTNSLNLEGFSF; Peptide with targeting and/or antimicrobial activity)
Target(s) [3]: S. epidermidis | Organism, effect ([1]; M. luteus): M. luteus (M)

PF-681 (chain 1 TALTTVGVSGARLITYCVGVEDI; chain 2 TALTTVGVSGARLITYCVGVEDI; Peptide with targeting and/or antimicrobial activity)
Target(s) (microorganism bound by the targeting peptide) [3]: M. smegmatis | Organism, effect (morphology, biofilm and growth disruption) ([1]; C. jeikeium): C. jeikeium (R) | Organism, effect (morphology, biofilm and growth disruption) ([1]; E. faecalis): E. faecalis (R) | Organism, effect (morphology, biofilm and growth disruption) ([1]; MRSA): MRSA (M) | Organism, effect (morphology, biofilm and growth disruption) ([1]; S. epidermidis): S. epidermidis (M) | Organism, effect (morphology, biofilm and growth disruption) ([1]; S. pneumoniae): S. pneumoniae (M)

PF-403 (LLSTEQLLKYYDGETFDGFQLPSNE; Peptide with targeting and/or antimicrobial activity)
Target(s) (microorganisms bound by the targeting peptide) [3]: E. coli; also recorded: P. aeruginosa; also recorded: S. pneumoniae; also recorded: E. faecalis; also recorded: C. jeikeium; also recorded: C. jejuni | Organism, effect ([1]; E. coli): E. coli (R) | Organism, effect ([1]; MRSA): MRSA (M) | Organism, effect ([1]; S. epidermidis): S. epidermidis (M)
